Data set [1] has as its system enzyme which decomposes R-Val-Val-X-Ala-X to Val-X-Ala-X. In words: Effect of various inhibitors and metal ions on the enzyme activity. The format is biochemical, Bacillus sphaericus ATCC 14577.
Data set [2] relates to Cathepsin D. In words: Anti-cathepsin D activity (method of The Journal of Antibiotics 25 689 (1972)). The format is biochemical. The procedure:
(§1) As an example of one of the physiological activities of the peptide and N-acyl derivatives thereof obtained according to the present invention, anti-pepsin and anti-cathepsin D activities and also acute toxicity are given in Table 8. The activities (ID50) were assayed according to the method described above and The Journal of Antibiotics 25 689 (1972). The antiprotease activities of the peptide and N-acyl derivatives thereof are extremely high.

The nature of data set [3]: Acute toxicity in mice. The format is in vivo. To be noted: mouse, in vivo, ip, abdominal injection. The protocol:
as §1
(§2) Note: Acute toxicity was examined by administering the compounds to the
(§3) mice by abdominal injection
(§4) *This value was obtained by intravenous injection.

Data set [4] has as its target T1, pepsin (SIGMA, 2XCRY) (Sus scrofa, UniProt P00791).
T1 construct: purchased SIGMA 2XCRY
Briefly: Assay of pepsin-inhibitory activity (casein digestion). The format is biochemical. The protocol:
Assay of pepsin-inhibitory activity in this invention was performed according to the following method: A mixture of 1 ml of 0.6 %, by weight, highly purified casein dissolved in 0.08M lactate buffer solution, pH 2.2, 0.7 ml of 0.02M KCl-HCl buffer solution, pH 2.0, and 0.2 ml of solution containing the compound sample was incubated at 37° C for three minutes. To this mixture 4 mcg of pepsin (SIGMA, 2XCRY) dissolved in 0.1 ml of 0.2M KCl-HCl buffer solution were added. The mixture was incubated at 37° C for 30 minutes. The reaction was stopped by the addition of 2.0 ml of 1.7M perchloric acid. After one hour at room temperature, the optical density (a) of the supernatant liquid was read at 280 mμ. An inhibition rate was obtained according to:
where (b) is the optical density at 280 mμ of the tube without the sample solution.
The ID50 is defined as the amount necessary for 50 % of the inhibition rate.
as §1

The test system of data set [5] is mice. In words: Acute toxicity in mice. The format is in vivo. The procedure:
as §1, §2, §3, §4

Data set [6] in a line: Solubility in water. The format is physicochemical. From the text:
The solubilities in water of the N-acyl derivatives according to the present invention are shown in Table 10 compared with the known N-acyl peptides having physiological activity.

Data set [7] is described as follows: Solubility of the hydrolysis product in organic solvents. The format is physicochemical.
Data set [8] concerns Stomach ulcers in rats. Briefly: Stress stomach ulcers in rats (method of Takagi et al.). The format is in vivo. The protocol:
Stomach ulcers in rats made by the method described in Takagi et al. in the Japanese Journal of Pharmacology, 18, 9-19, […], that is, placing male rats in a cage at 23° C. for 22 hours, are protected or therapetuically treated by the compounds. When 50 mg/kg of pepstatin and the compounds according to the invention were orally given 30 minutes before the stress, and the rats were sacrificed 48 hours afte the stress, the curative ratio of the ulcers was 60 - 75%. When the dose was 10 mg/kg, the inhibition percentage of the ulcers was 50 - 60%.

The mark [9] stands for this setting: Concentration 2 mM, Control (No Addition) 100.
[10] abbreviates: Concentration 10 mM, Control (No Addition) 100.
Setting [11] is: casein, pH 2, 37° C, 30 minutes, read-out: ID50 Pepsin (converted).

Converted amounts (≈) assume the structure as drawn. Like-named read-outs stand apart in the source and are kept apart here. Some results are limits rather than exact numbers.

T1 sequence (P00791 60-385): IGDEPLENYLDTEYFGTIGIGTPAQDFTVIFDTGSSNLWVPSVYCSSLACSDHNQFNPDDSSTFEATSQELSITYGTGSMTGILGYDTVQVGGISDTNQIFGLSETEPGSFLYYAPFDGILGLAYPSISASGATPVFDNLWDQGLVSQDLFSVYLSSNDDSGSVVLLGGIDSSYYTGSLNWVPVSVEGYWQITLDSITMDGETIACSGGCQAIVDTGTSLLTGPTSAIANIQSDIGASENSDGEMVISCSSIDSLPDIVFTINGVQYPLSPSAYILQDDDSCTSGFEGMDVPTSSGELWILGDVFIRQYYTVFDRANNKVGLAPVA

For `O[C@H](CS)[C@H](O)CS` (racemic) [Dithiothreitol], the “Inhibition of the enzyme” value in data set [1] (2mM) is given as “Inhibition”. The compound also came in with a Relative activity in data set [1] (setting [9]) of 0.
Usually LD50 stands for the dose at which mortality reaches 50%. A high value points to lower toxicity. As for `CC(C)C[C@H](NC(=O)[C@H](C)NC(=O)C[C@H](O)[C@H](CC(C)C)NC(=O)[C@@H](NC(=O)c1ccccc1)C(C)C)[C@@H](O)CC(=O)O` [Benzoyl-Val-X-Ala-X, N-benzoyl-Val-X-Ala-X], the “ID50 Cathepsin D” value in data set [2] stood at 0.05 µg/mL (≈ 0.0824 µM). Also, the LD50 in data set [3] stood at 1350 mg/kg.
Take `[Ca+2].[Cl-].[Cl-]` [Calcium Chloride]: in data set [1], the Relative activity is recorded as 110 and the increase in activity was 29%.
On to `[Cl][Co][Cl]` [Cobalt Chloride], for which the figures for the Relative activity in data set [1] (setting [9]) and in data set [1] (setting [10]) were 134 and 166, respectively.
`O=C(O)CN(CCN(CC(=O)O)CC(=O)O)CC(=O)O` [Ethylenediaminetetraacetic Acid] returned a Relative activity in data set [1] (setting [9]) of 30.
Turning to `[Cl][Hg][Cl]` [HgCl2], in data set [1] (2mM), the “Inhibition of the enzyme” value is given as “Inhibition”.
Take `CC(C)C[C@H](NC(=O)[C@H](C)NC(=O)C[C@H](O)[C@H](CC(C)C)NC(=O)[C@@H](NC(=O)C(C)C)C(C)C)[C@@H](O)CC(=O)O` [Isobutyryl-Val-X-Ala-X, N-isobutyryl-Val-X-Ala-X]: the IC50 in data set [4] (setting [11]) is 36.7 nM.
Turning to `CC(C)CC(=O)N[C@H](C(=O)N[C@@H](CC(C)C)[C@@H](O)CC(=O)N[C@@H](C)C(=O)N[C@@H](CC(C)C)[C@@H](O)CC(=O)O)C(C)C` [Isovaleryl-Val-X-Ala-X, N-isovaleryl-Val-X-Ala-X], the IC50 in data set [4] (setting [11]) was 17 nM. Also, in data set [5] (abdominal injection), the “Acute toxicity LD0” value is given as ≥ 3000 mg/kg. The Solubility in water in data set [6] (20° C) is 5,000 mcg/ml.
Take `CC(C)C[C@H](NC(=O)[C@H](C)NC(=O)C[C@H](O)[C@H](CC(C)C)NC(=O)[C@@H](NC(=O)C(C)O)C(C)C)[C@@H](O)CC(=O)O` (some centres unmarked) [Lactoyl-Val-X-Ala-X, lactoyl-Val-X-Ala-X]: the IC50 in data set [4] (setting [11]) was 34.8 nM. In addition, the “Acute toxicity LD0” value in data set [5] (abdominal injection) is listed as ≥ 6000 mg/kg; in data set [5] (intravenous injection) it was ≥ 550 mg/kg. Further, the “Water solubility compared with other derivatives” value in data set [6] was “much more water soluble”. Further, in data set [6] (20° C), the Solubility in water is given as ≥ 50,000 mcg/ml.
In data set [1], `CC(=O)[O-].CC(=O)[O-].[Pb+2]` [Lead Acetate] showed a Relative activity of 43.
Still for that read-out and setting: the figure for `CC(=O)[O-].CC(=O)[O-].[Hg+2]` [Mercuric Acetate] is 0.
On the same count and under the same terms, in the case of `O=C(O)CI` [Monoiodoacetic Acid] it was 84.
For the compound `O=C1CCC(=O)N1Br` [N-Bromosuccinimide], in data set [1] (2mM), the “Inhibition of the enzyme” value is reported as “Inhibition”. This compound returned a Relative activity in data set [1] (setting [9]) of 0.
In data set [1], `[N-]=[N+]=[N-].[Na+]` [NaN3] gave a Relative activity of 100.
Regarding `CCCCCCCCCCCCCCCC(=O)N[C@H](C(=O)N[C@@H](CC(C)C)[C@@H](O)CC(=O)N[C@@H](C)C(=O)N[C@@H](CC(C)C)[C@@H](O)CC(=O)O)C(C)C` [Palmitoyl-Val-X-Ala-X, N-palmitoyl-Val-X-Ala-X], the IC50 in data set [4] (setting [11]) is 607 nM.
In data set [6] (20° C), `CC(=O)C(CC(C)C)NC(=O)[C@H](C)NC(=O)CC(O)C(CC(C)C)NC(=O)[C@@H](NC(=O)[C@@H](NC(=O)CC(C)C)C(C)C)C(C)C` (stereo partly drawn) [Pepstanone A, isovaleryl-Val-Val-X-Ala-X'] had a Solubility in water of 50 µg/mL (≈ 78.1 µM).
As to `CC(C)CC(=O)N[C@H](C(=O)N[C@H](C(=O)N[C@@H](CC(C)C)[C@@H](O)CC(=O)N[C@@H](C)C(=O)N[C@@H](CC(C)C)[C@@H](O)CC(=O)O)C(C)C)C(C)C` [Pepstatin A], the Solubility in water in data set [6] was 200 µg/mL (≈ 292 µM).
In data set [6] (20° C), `CCCCCC(=O)N[C@H](C(=O)N[C@H](C(=O)N[C@@H](CC(C)C)[C@@H](O)CC(=O)N[C@@H](C)C(=O)N[C@@H](CC(C)C)[C@@H](O)CC(=O)O)C(C)C)C(C)C` [Pepstatin B, n-caproyl-L-valyl-L-valyl-4-amino-3-hydroxy-6-methylheptanoyl-L-alanyl-4-a mino-3-hydroxy-6-methylheptanoic acid] gave a Solubility in water of 100 µg/mL (≈ 143 µM).
For `CC(C)C[C@H](NC(=O)[C@H](C)NC(=O)C[C@H](O)[C@H](CC(C)C)NC(=O)[C@@H](NC(=O)COc1ccccc1)C(C)C)[C@@H](O)CC(=O)O` [Phenoxyacetyl-Val-X-Ala-X, N-phenoxyacetyl-Val-X-Ala-X], the IC50 in data set [4] is 31.4 nM. In addition, the LD50 in data set [3] is 1500 mg/kg. Besides, in data set [6] (20° C), the Solubility in water is 20,000 mcg/ml.
Take `CC(C)C[C@H](NC(=O)[C@H](C)NC(=O)C[C@H](O)[C@H](CC(C)C)NC(=O)[C@@H](NC(=O)C(C)Oc1ccccc1)C(C)C)[C@@H](O)CC(=O)O` (some centres unmarked) [Phenoxypropionyl-Val-X-Ala-X, N-2-phenoxypropionyl-Val-X-Ala-X]: the IC50 in data set [4] (setting [11]) is 30.7 nM. In addition, in data set [3], the LD50 came out at 2100 mg/kg. Also, the Solubility in water in data set [6] (20° C) is given as 15,000 mcg/ml.
Take `CC(C)C[C@H](NC(=O)[C@H](C)NC(=O)C[C@H](O)[C@H](CC(C)C)NC(=O)[C@@H](N)C(C)C)[C@@H](O)CC(=O)O` [Val-X-Ala-X, L-valyl-4-amino-3-hydroxy-6-methylheptanoyl-L-alanyl-4-amino-3-hydroxy-6-m ethylheptanoic acid]: the IC50 in data set [4] is 19900 nM. In data set [5] (abdominal injection), the “Acute toxicity LD0” value is ≥ 5000 mg/kg. In addition, the “Solubility” value in data set [7] (ether, ethyl acetate, and butyl acetate) is “insoluble”; in data set [7] (methanol, ethanol, pyridine, and acetic acid) it was “soluble”; in data set [7] (n-propanol, n-butanol, n-amyl alcohol and acetone) it was “slightly soluble”.
Consider `[Cl-].[Cl-].[Zn+2]` [Zinc Chloride], for which the Relative activity in data set [1] (setting [9]) is reported as 66; in data set [1] (setting [10]), 44.
Turning to `c1cnc2c(c1)ccc1cccnc12` [o-Phenanthroline], the “Inhibition of the enzyme” value in data set [1] (2mM) is reported as “Inhibition”. In data set [1] (setting [9]), this compound came in with a Relative activity of 0.
For `O=C(O)c1cc[c]([Hg][Cl])cc1` [p-Chloromercuribenzoate], in data set [1], the “Inhibition of the enzyme” value is recorded as “Inhibition” and the Relative activity amounted to 2.
Turning to `CC(C)CC(=O)N[C@H](C(=O)N[C@H](C(=O)N[C@@H](CC(C)C)[C@@H](O)CC(=O)N[C@@H](C)C(=O)N[C@@H](CC(C)C)[C@@H](O)CC(=O)O)C(C)C)C(C)C` [pepstatin], in data set [8] (50 mg/kg orally 30 minutes before the stress, rats sacrificed 48 hours after the stress), the “curative ratio of the ulcers” value is 60 - 75%. In addition, the “cure of ulcers” value in data set [8] (50 - 200 mg/kg immediately after the stress and once daily for 4 days) is reported as “rapid cure of ulcers was proven”.
As for `OCCS` [β-Mercaptoethanol], the “Inhibition of the enzyme” value in data set [1] (2mM) is “Inhibition”. In data set [1] (setting [9]), this compound registered a Relative activity of 0.

The record behind these values is patent US4070458A, “Novel physiologically active peptide and its n-acyl derivatives and processes for producing thereof” (priority 1974, dated 1978).
